Article PMC2613801 (Bioorganic & medicinal chemistry, 2008)

How the values were obtained:
[1] = molecular target: T1, TRPV1 (Rattus norvegicus, UniProt O35433); assay: capsaicin-induced 45Ca2+-uptake in TRPV1ε-NIH3T3 cells; assay type: cell-based; conditions: for Hill Slope ± SEM: enhancement of 45Ca2+-uptake in presence of 2 µM capsaicin; for enhancing activity (in words): in presence of 2 µM capsaicin
[2] = molecular target: T1, TRPV1; assay: capsaicin-induced 45Ca2+-uptake in primary dorsal root ganglion; assay type: cell-based; conditions: for Hill Slope ± SEM / enhancing activity (in words): primary DRG cells; for Hill Slope ± SEM: ~0.5 µM capsaicin, single assay run in quadruplicate wells; for enhancing activity (in words): in presence of capsaicin
[3] = molecular target: T1, TRPV1; assay: intracellular Ca2+ imaging; assay type: cell-based
[4] = molecular target: human A3 adenosine receptor; conditions: read-out: Ki value at the A3 receptor; ref [30]; cited from earlier work

T1 sequence (O35433 whole entry): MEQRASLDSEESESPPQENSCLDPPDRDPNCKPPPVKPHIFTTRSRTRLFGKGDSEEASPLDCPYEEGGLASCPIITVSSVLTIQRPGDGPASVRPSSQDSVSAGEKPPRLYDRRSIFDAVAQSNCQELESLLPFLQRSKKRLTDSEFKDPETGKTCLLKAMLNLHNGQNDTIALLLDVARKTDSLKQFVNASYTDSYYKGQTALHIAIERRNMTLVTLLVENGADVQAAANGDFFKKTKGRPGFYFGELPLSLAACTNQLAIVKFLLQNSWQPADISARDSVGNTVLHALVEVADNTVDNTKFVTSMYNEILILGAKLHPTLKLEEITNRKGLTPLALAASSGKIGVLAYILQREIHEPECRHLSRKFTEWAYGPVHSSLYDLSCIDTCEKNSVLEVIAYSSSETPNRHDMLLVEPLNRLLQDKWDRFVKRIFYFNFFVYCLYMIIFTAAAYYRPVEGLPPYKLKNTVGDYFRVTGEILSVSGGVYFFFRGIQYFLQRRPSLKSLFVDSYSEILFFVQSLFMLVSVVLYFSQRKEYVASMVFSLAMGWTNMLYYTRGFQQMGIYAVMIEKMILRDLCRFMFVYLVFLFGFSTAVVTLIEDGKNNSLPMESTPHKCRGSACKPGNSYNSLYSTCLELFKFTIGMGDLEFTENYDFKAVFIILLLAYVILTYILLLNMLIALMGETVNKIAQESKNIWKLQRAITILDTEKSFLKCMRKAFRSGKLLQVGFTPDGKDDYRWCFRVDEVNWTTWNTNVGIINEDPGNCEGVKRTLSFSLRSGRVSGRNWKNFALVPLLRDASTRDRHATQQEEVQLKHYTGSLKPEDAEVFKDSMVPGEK

Structure (SMILES) | Hill Slope ± SEM [1] | enhancing activity (in words) [1] | other results
CCOC(=O)C1=C(C2CCCCC2)NC(C)=C(C(=O)SCC)C1CC (racemic) [Compound 17, 3-Ethylthio-5-ethyl-2-methyl-4-ethyl-6-cyclohexyl-1,4-(±)-dihydropyridine-3,5-dicarboxylate] |  | inactive | 
CCOC(=O)C1=C(c2ccccc2)N=C(C)/C(=C(/O)SCC)C1CC (stereo not shown) [Compound 12] | 1.55 ± 0.17 |  | 
CCCC1C(C(=O)OCC)=C(c2ccccc2)N=C(C)/C1=C(/O)SCC (stereo not shown) [Compound 18] | 1.38 ± 0.23 | strong, dosedependent effects | EC50 [2]: 10.5 ± 1.1 µM; Hill Slope ± SEM [2]: 1.47 ± 0.16
CCOC(=O)C1=C(c2ccccc2)N=C(C)/C(=C(/O)SCCOC)C1CC (stereo not shown) [Compound 23] | 1.79 ± 0.17 | strong, dosedependent effects | fold increase in calcium influx ([1]; 2 µM capsaicin): 5.3 fold; peak ratio (340/380, normalized to baseline) ([3]; 200 nM capsaicin in the presence of 10 µM 23, 30 sec, 69 cells): 1.701±0.001
CO/C(O)=C1\C(C)=NC(C)=C([N+](=O)[O-])[C@H]1c1ccccc1C(F)(F)F [S(–)-Bay K 8644, reference compound] |  | not enhancers | enhancing activity (in words) [2]: not enhancers
COc1cc(CNC(=O)CCCC/C=C/C(C)C)ccc1O [capsaicin, reference compound] |  |  | ED100 for capsaicin activation of TRPV1 ([1]; pH 7.5): ~ 2 µM; peak ratio (340/380, normalized to baseline) ([3]; 200 nM capsaicin alone, 30 sec, 98 cells): 1.518±0.001
COC(=O)C1=C(C)NC(C)=C(C(=O)OCCN(C)Cc2ccccc2)C1c1cccc([N+](=O)[O-])c1 (stereo not shown) [nicardipine, reference compound] |  | not enhancers | enhancing activity (in words) [2]: not enhancers; Ki [4]: 3.25 µM

More lines, main results first:

Hill Slope ± SEM [1] | enhancing activity (in words) [1] | Structure (SMILES) | other results
1.45 ± 0.28 |  | CCOC(=O)C1=C(C)NC(c2cccc(Cl)c2)=C(C(=O)OCC)C1CC (racemic) [Compound 9, 3,5-Diethyl-2-methyl-4-ethyl-6-(3-chlorophenyl)-1,4-(±)-dihydropyridine-3,5-dicarboxylate] | Hill Slope ± SEM [2]: 2.24 ± 0.53
1.98 ± 0.30 |  | CCOC(=O)C1=C(C)NC(c2cccc(F)c2)=C(C(=O)OCC)C1CC (racemic) [Compound 10, 3,5-Diethyl-2-methyl-4-ethyl-6-(3-fluorophenyl)-1,4-(±)-dihydropyridine-3,5-dicarboxylate] | EC50 [2]: 20.5 ± 1.1 µM; Hill Slope ± SEM [2]: 2.64 ± 0.59
1.86 ± 0.42 |  | CCOC(=O)C1=C(C)NC(c2ccc(F)cc2)=C(C(=O)OCC)C1CC (racemic) [Compound 11, 3,5-Diethyl-2-methyl-4-ethyl-6-(4-fluorophenyl)-1,4-(±)-dihydropyridine-3,5-dicarboxylate] | EC50 [2]: 15.7 ± 1.3 µM; Hill Slope ± SEM [2]: 2.01 ± 0.77
1.59 ± 0.33 | strong, dosedependent effects | CCOC(=O)C1=C(c2cccc(F)c2)NC(C)=C(C(=O)SCC)C1CC (racemic) [Compound 14, 3-Ethylthio-5-ethyl-2-methyl-4-ethyl-6-(3-fluorophenyl)-1,4-(±)-dihydropyridine-3,5-dicarboxylate] | 
1.82 ± 0.33 |  | CCOC(=O)C1=C(c2ccc(F)cc2)NC(C)=C(C(=O)SCC)C1CC (racemic) [Compound 15, 3-Thioethyl-5-ethyl-2-methyl-4-ethyl-6-(4-fluorophenyl)-1,4-(±)-dihydropyridine-3,5-dicarboxylate] | 
1.14 ± 0.32 |  | CCCC1C(C(=O)SCCc2ccccc2)=C(C)NC(c2ccccc2)=C1C(=O)OCC (racemic) [Compound 26, 3-(2-Phenylethylthio)-5-ethyl-2-methyl-4-propyl-6-phenyl-1,4-(±)-dihydropyridine-3,5-dicarboxylate] | 
1.18 ± 0.25 | slightly active | CCOC(=O)C1=C(c2ccc(F)cc2)NC(C)=C(C(=O)SCCc2ccccc2)C1CC (racemic) [Compound 29, 3-(2-Phenylethylthio)-5-ethyl-2-methyl-4-ethyl-6-(4-fluorophenyl)-1,4-(±)-dihydropyridine-3,5-dicarboxylate] | 
 | neutral | CCOC(=O)C1=C(c2ccc([N+](=O)[O-])cc2)NC(C)=C(C(=O)SCc2ccccc2)C1CC (racemic) [Compound 31] | enhancing activity (in words) [2]: inactive
 | no enhancing effect | CCOC(=O)C1=C(C)NC(c2ccccc2)=C(C(=O)OCc2ccccc2)C1C#Cc1ccccc1 (stereo not shown) [MRS1191, 1,4-dihydro-2-methyl-6-phenyl-4-(phenylethynyl)-3,5-pyridinedicarboxylic acid, 3-ethyl 5-(phenylmethyl) ester, reference compound] | 
